As a reminder, the IC50 is the concentration that inhibits the measured activity by half.

The target of the first experiment is T1, PAR2 (Homo sapiens, UniProt P55085).
T1 construct: HEK293 cell lines derived from human embryonic kidney cultured in a MEM culture medium; endogenous in cells; host or cells: HEK293
T1 sequence (P55085 26-397): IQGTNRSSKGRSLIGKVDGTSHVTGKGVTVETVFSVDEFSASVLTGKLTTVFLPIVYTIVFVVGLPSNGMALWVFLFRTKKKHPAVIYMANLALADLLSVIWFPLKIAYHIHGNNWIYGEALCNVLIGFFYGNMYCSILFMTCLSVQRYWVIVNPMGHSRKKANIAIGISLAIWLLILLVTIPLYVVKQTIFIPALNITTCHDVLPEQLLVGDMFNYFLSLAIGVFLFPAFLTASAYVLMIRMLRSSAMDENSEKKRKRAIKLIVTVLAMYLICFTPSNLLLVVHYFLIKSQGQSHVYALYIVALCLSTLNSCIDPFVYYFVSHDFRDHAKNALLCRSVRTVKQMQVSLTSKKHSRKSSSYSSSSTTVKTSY
In words: Intracellular calcium concentration measurement (SLIGKV-NH2-induced calcium change, Fluo-8, FDSS/μCELL). The format is cell-based. As to conditions: HEK293 cells; SLIGKV-NH2 10 μM-induced intracellular calcium change; read-out: IC50.
Take `O=C(c1cc2nc(C3C4CC5CC(C4)CC3C5)cc(C(F)(F)F)n2n1)N1CCCCCC1` (stereo not drawn) [Example 84]: the IC50 came out at 274 nM.
The same measure, in the same setting: under `O=C(c1cc2nc(C34CCC(CC3)CC4)cc(C(F)(F)F)n2n1)N1CCCCCC1` [Example 85] stands 310 nM; under `CC(C)c1cc(COC2CCCC2)nc2cc(C(=O)N3CCCCC3(C)C)nn12` [Example 86], 338 nM; under `CC(C)c1cc(CC2CCCCC2)nc2cc(C(=O)N3CCCCCO3)nn12` [Example 91], 522 nM.
Same read-out and setting: the same measure for `CC(C)c1cc(C(C)C2CCCCC2)nc2cc(C(=O)N3CCCCCC3)nn12` (stereo not drawn) [Example 93]: 236 nM; for `O=C(c1cc2nc(N3CCCCC3)cc(C(F)(F)F)n2n1)N1CCCCCC1` [Example 95]: 742 nM.
Still for that read-out and setting: the same measure for `CC1(C)C(=O)CCCN1C(=O)c1cc2nc(C34CC5CC(CC(C5)C3)C4)cc(C(F)(F)F)n2n1` [Example 96]: 10 nM; for `CC(C)c1cc(C23CC4CC(CC(C4)C2)C3)nc2cc(C(=O)N3CCCC(O)C3(C)C)nn12` (stereo not drawn) [Example 97]: 20 nM.
Consider `CC(C)c1cc(CC2(C)CCCCC2)nc2cc(C(=O)N3CCCCCC3)nn12` [Example 98], for which the IC50 was found to be 270 nM.
The same measure, in the same setting: the same measure for `Cc1cc(CC2CCCCC2)nc2cc(C(=O)N3CCCCC3(C)C)nn12` [Example 99]: 336 nM; for `CC1(C)C(O)CCCN1C(=O)c1cc2nc(C34CC5CC(CC(C5)C3)C4)cc(C(F)(F)F)n2n1` (stereo not drawn) [Example 100]: 23 nM.
Still for that read-out and setting: under `CC(C)(C)c1cc(C23CC4CC(CC(C4)C2)C3)nc2cc(C(=O)N3CCNCC3(C)C)nn12` [Example 101] stands 70 nM.
Same read-out and setting: under `CC1(C)CC(O)CCN1C(=O)c1cc2nc(C34CC5CC(CC(C5)C3)C4)cc(C(F)(F)F)n2n1` (stereo not drawn) [Example 102] stands 37 nM.
Consider `CC(C)c1cc(CC2CCCC2)nc2cc(C(=O)N3CCCC(=O)C3(C)C)nn12` [Example 103], for which the IC50 stood at 63 nM.
On the same count and under the same terms, under `CCC(CC)c1cc(CC2CCCC2)nc2cc(C(=O)N3CCCC(O)C3(C)C)nn12` (stereo not drawn) [Example 104] stands 46 nM.
Same read-out and setting: the same measure for `CCC(CC)c1cc(CC2CCCC2)nc2cc(C(=O)N3CCC(O)CC3(C)C)nn12` (stereo not drawn) [Example 106]: 96 nM; for `CC(C)c1cc(CC2CCCCC2)nc2cc(C(=O)N3CCCC(C)(O)C3(C)C)nn12` (stereo not drawn) [Example 107]: 67 nM; for `CC1(C)CSCCN1C(=O)c1cc2nc(CC3CCCC3)cc(C(F)(F)F)n2n1` [Example 108]: 78 nM.
Take `CC1CCC(Cc2cc(C(C)C)n3nc(C(=O)N4CCCCC4(C)C)cc3n2)CC1` (stereo not drawn) [Example 109]: the IC50 stood at 85 nM.
Same read-out and setting: the same measure for `CC1(C)C(O)CCCN1C(=O)c1cc2nc(C3CCCCC3)cc(C(F)(F)F)n2n1` (stereo not drawn) [Example 111]: 250 nM; for `CC1(C)CCCCN1C(=O)c1cc2nc(C3C4CC5CC(C4)CC3C5)cc(C(F)(F)F)n2n1` (stereo not drawn) [Example 112]: 113 nM.
Consider `COC1CCN(C(=O)c2cc3nc(CC4CCCC4)cc(C(F)(F)F)n3n2)C(C)(C)C1` (stereo not drawn) [Example 113], for which the IC50 stood at 263 nM.
The same measure, in the same setting: the same measure for `COC1CCN(C(=O)c2cc3nc(CC4CCCC4)cc(C(C)C)n3n2)C(C)(C)C1` (stereo not drawn) [Example 114]: 234 nM.
Same read-out and setting: under `O=C(c1cc2nc(CC3CCCCC3)cc(C3CCCCCC3)n2n1)N1CCCCCC1` [Example 115] stands 236 nM; under `COCCN1CCN(C(=O)c2cc3nc(CC4CCCCC4)cc(C(C)C)n3n2)C(C)(C)C1` [Example 116, [5-(cyclohexylmethyl)-7-propan-2-ylpyrazolo[1,5-a]pyrimidin-2-yl]-[4-(2-methoxyethyl)-2,2-dimethylpiperazin-1-yl]methanone], 233 nM.
Consider `CC(C)c1cc(CC2CCCCC2)nc2cc(C(=O)N3CCC(O)CC3(C)C)nn12` (stereo not drawn) [Example 118], for which the IC50 turned out to be 253 nM.
Still for that read-out and setting: the same measure for `CC(C)c1cc(CC2CCCCC2)nc2cc(C(=O)N3CCC(C)(C)C(=O)C3(C)C)nn12` [Example 119]: 185 nM.
On the same count and under the same terms, under `CC(C)c1cc(CC2CCCCC2)nc2cc(C(=O)N3CCC(C)(C)C(O)C3(C)C)nn12` (stereo not drawn) [Example 120] stands 298 nM; under `CCc1cc(C2CCCCC2)nc2cc(C(=O)N3CCCCC3(C)C)nn12` [Example 121], 245 nM; under `COC1(C)CCCN(C(=O)c2cc3nc(CC4CCCCC4)cc(C(C)C)n3n2)C1(C)C` (stereo not drawn) [Example 122], 178 nM.
In the case of `CC(C)c1cc(CC2CCCC2)nc2cc(C(=O)N3CC=CCCC3)nn12` [Example 123], the IC50 stood at 135 nM.
Regarding `CCC(C)c1cc(CC2CCCCC2)nc2cc(C(=O)N3CCCCC3(C)C)nn12` (stereo not drawn) [Example 124], the IC50 is 144 nM.
Still for that read-out and setting: under `CC(C)c1cc(CC2CCCCC2)nc2cc(C(=O)N3CCSCC3)nn12` [Example 125] stands 256 nM.
`CC(C)c1cc(CC2CCCCC2)nc2cc(C(=O)N3CC=CCCC3)nn12` [Example 126]: the IC50 is 207 nM.
For the molecule `CC1CCCN(C(=O)c2cc3nc(CC4CCCC4)cc(C(C)C)n3n2)CC1` (stereo not drawn) [Example 127], the IC50 stood at 229 nM.
The same measure, in the same setting: the same measure for `CCC(C)c1cc(CC2CCCCC2)nc2cc(C(=O)N3CCSCC3)nn12` (stereo not drawn) [Example 128]: 151 nM; for `C=C1CCCN(C(=O)c2cc3nc(CC4CCCC4)cc(C(C)C)n3n2)C1(C)C` [Example 129]: 208 nM.
Consider `CCC(CC)c1cc(CC2CCCCCC2)nc2cc(C(=O)N3CCCCC3(C)C)nn12` [Example 130], for which the 50% inhibitory concentration (IC50) was determined as 297 nM.
Same read-out and setting: under `CCCN(CC)c1cc(CC2CCCCC2)nc2cc(C(=O)N3CCCCCC3)nn12` [Example 131] stands 225 nM; under `CC1CCC(Cc2cc(C(C)C)n3nc(C(=O)N4CCCCC4)cc3n2)CC1` (stereo not drawn) [Example 132], 197 nM; under `CCCCCc1cc(C23CC4CC(CC(C4)C2)C3)nc2cc(C(=O)N3CCCCCC3)nn12` [Example 133], 360 nM.
Still for that read-out and setting: the same measure for `O=C(c1cc2nc(CC3CCCC3)cc(C3CCCCC3)n2n1)N1CCCCCC1` [Example 134]: 382 nM; for `CCCN(C)c1cc(CC2CCCCC2)nc2cc(C(=O)N3CCCCCC3)nn12` [Example 135]: 386 nM; for `CCc1cc(C2CCCCCC2)nc2cc(C(=O)N3CCCCCC3)nn12` [Example 136]: 452 nM.
As for `O=C(c1cc2nc(CC3CCCCC3)cc(C3CCC3)n2n1)N1CCCCCC1` [Example 137], the IC50 worked out at 482 nM.
On the same count and under the same terms, under `CCC1CCC(Cc2cc(C(C)C)n3nc(C(=O)N4CCCCC4)cc3n2)CC1` (stereo not drawn) [Example 138] stands 72 nM; under `CCC1CCC(Cc2cc(C(C)C)n3nc(C(=O)N4CCCCCC4)cc3n2)CC1` (stereo not drawn) [Example 139], 95 nM; under `CC(C)c1cc(CC2CCCCC2)nc2cc(C(=O)N3CCCCC3)nn12` [Example 140], 266 nM.
The same measure, in the same setting: the same measure for `CCC(C)c1cc(CC2CCCC2)nc2cc(C(=O)N3CCCCC3)nn12` (stereo not drawn) [Example 141]: 304 nM; for `CC(C)c1cc(CC2CCCCC2)nc2cc(C(=O)N3CCCC(F)(F)CC3)nn12` [Example 142]: 171 nM; for `CCC(C)c1cc(CC2CCCCC2)nc2cc(C(=O)N3CCCCCCC3)nn12` (stereo not drawn) [Example 143]: 91 nM.
The same measure, in the same setting: the same measure for `CCc1cc(CC2CCCC2)nc2cc(C(=O)N3CCCCCCC3)nn12` [Example 145]: 252 nM; for `CCc1cc(CC2CCCCC2)nc2cc(C(=O)N3CCCCCCC3)nn12` [Example 146]: 136 nM; for `CCc1cc(CC2CCCCCC2)nc2cc(C(=O)N3CCCCCCC3)nn12` [Example 147]: 163 nM.
Take `CCc1cc(CC2CCCCCC2)nc2cc(C(=O)N3CCCCCC3)nn12` [Example 148]: the IC50 amounted to 144 nM.
In the case of `CCC(C)c1cc(CC2CCCCCC2)nc2cc(C(=O)N3CCCCCC3)nn12` (stereo not drawn) [Example 149], the IC50 was 208 nM.
The same measure, in the same setting: the same measure for `CC(C)(C)c1cc(CC2CCCC2)nc2cc(C(=O)N3CCCCCCC3)nn12` [Example 150]: 180 nM; for `CC(C)c1cc(C2CC23CCCCC3)nc2cc(C(=O)N3CCCCCC3)nn12` (stereo not drawn) [Example 151]: 149 nM; for `CC(C)c1cc(CC2CCC(C)(C)CC2)nc2cc(C(=O)N3CCCCCC3)nn12` [Example 152]: 132 nM.
Turning to `CC(C)c1cc(CC2CCC(F)CC2)nc2cc(C(=O)N3CCCCCC3)nn12` (stereo not drawn) [Example 153], the IC50 was determined as 282 nM.
On the same count and under the same terms, under `CC(C)c1cc(CC2CC3CCC2C3)nc2cc(C(=O)N3CCCCCC3)nn12` (stereo not drawn) [Example 154] stands 47 nM; under `CC(C)c1cc(CC2CCC(C(F)(F)F)CC2)nc2cc(C(=O)N3CCCCCC3)nn12` (stereo not drawn) [Example 156], 103 nM.
Same read-out and setting: the same measure for `CC(C)c1cc(C2CC3CCC2C3)nc2cc(C(=O)N3CCCCCC3)nn12` (stereo not drawn) [Example 157]: 319 nM.
The same measure, in the same setting: the same measure for `CC(C)c1cc(CC2CCCCC2C)nc2cc(C(=O)N3CCCCCC3)nn12` (stereo not drawn) [Example 158]: 117 nM; for `CC(C)c1cc(C2C3CCCCC32)nc2cc(C(=O)N3CCCCCC3)nn12` (stereo not drawn) [Example 159]: 394 nM.
For the molecule `CC(C)c1cc(CC2CC3(CCC3)C2)nc2cc(C(=O)N3CCCCCC3)nn12` [Example 160], the IC50 came out at 147 nM.
For `CC(C)(C)c1cc(CC2CCCCC2)nc2cc(C(=O)N3CCCCC3(C)C)nn12` [Example 161], the IC50 is 296 nM.

The same experiment, now with this note: IC50 (nM).
As for `CCCN(CCC)c1cc(CC2CCCCC2)nc2cc(C(=O)N3CCCCCC3)nn12` [Example 89, azepan-1-yl-[5-(cyclohexylmethyl)-7-(dipropylamino)pyrazolo[1,5-a]pyrimidin-2-yl]methanone], the IC50 is 243 nM.
Still for that read-out and setting: the same measure for `CC(C)c1cc(CC2CCC3CCCCC3C2)nc2cc(C(=O)N3CCCCCC3)nn12` (stereo not drawn) [Example 155]: 218 nM.

The values above are taken from patent US20240376109A1, “PYRAZOLO[1,5-A]PYRIMIDINE COMPOUND FOR THE TREATMENT OF DERMAL DISORDERS” (OTSUKA PHARMACEUTICAL CO., LTD., priority 2021, published 2024).
